What all share (format): in vivo
The test system of assay [1] is Mycosphaerella graminicola; Anamorph: Septoria tritici. Kind of assay: Leaf Blotch of Wheat (SEPTTR) disease control. Particulars: Zymoseptoria tritici; for pest or weed control at 100 ppm: rate 100 ppm. The gist of the method: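 Wheat seedlings (Yuma, first leaf emerged) were sprayed to run-off with compound in acetone/water (1:9, 110 ppm Triton X-100) and inoculated with Septoria tritici spores before or after treatment. Disease severity (0–100%) was scored once untreated first leaves were fully symptomatic; control was calculated relative to untreated plants.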

The test system of assay [2] is Puccinia triticina; Synonym: Puccinia recondite f. Sp. Tritici. Kind of assay: Wheat Brown Rust (PUCCRT) disease control. Particulars: Puccinia triticina, topical; for pest or weed control at 100 ppm: rate 100 ppm. The gist of the method: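 Brown rust on first-leaf Yuma wheat: spore inoculation before or after spray application (acetone/Triton X-100 solution, or EC with Trycol in track spray), overnight 100% RH at 22 °C, disease developed at 24 °C. Severity scored 0–100% and converted to percent control against untreated.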

A further assay relates to Erysiphe cichoracearum. As to the kind of experiment: Powdery Mildew of Cucumber (ERYSCI) disease control. The note with it: Golovinomyces cichoracearum, topical, 24 h, 1 Day Protectant, read-out: Disease Control ERYSCI 1 DP. The method, then: Technical grades of materials were dissolved in acetone, which were then mixed with nine volumes of water containing 110 ppm Triton X-100. The fungicide solutions were applied onto wheat seedlings using an automated booth sprayer to run-off. All sprayed plants were allowed to air dry prior to further handling. All fungicides were evaluated using the aforementioned method for their activity vs. all target diseases. Wheat leaf blotch and brown rust activity were also evaluated using track spray applications, in which case the fungicides were formulated as EC formulations, containing 0.1% Trycol 5941 in the spray solutions. Wheat plants (variety Yuma) were grown from seed in a greenhouse in 50% mineral soil/50% soil-less Metro mix until the first leaf was fully emerged, with 7-10 seedlings per pot. These plants were inoculated with an aqueous spore suspension of Septoria tritici either prior to or after fungicide treatments. After inoculation the plants were kept in 100% relative humidity (one day in a dark dew chamber followed by two to three days in a lighted dew chamber at 20° C.) to permit spores to germinate and infect the leaf. The plants were then transferred to a greenhouse set at 20° C. for disease to develop. When disease symptoms were fully expressed on the 1st leaves of untreated plants, infection levels were assessed on a scale of 0 to 100 percent disease severity. Percent disease control was calculated using the ratio of disease severity on treated plants relative to untreated plants. Cucumber seedlings (variety Bush Pickle) were grown in soil-less Metro mix, with one plant per pot, and used in the test when 12 to 14 days old. Plants were inoculated with a spore suspension 24 hr following fungicide treatments. After inoculation the plants remained in the greenhouse set at 20° C. until disease was fully expressed. Fungicide formulation, application and disease assessment on the sprayed leaves followed the procedures as described in the Example A.

Setting [3] is: 24 h, 1 Day Protectant, read-out: SEPTTR 1 DP disease control.
Where [4] appears, read: 24 h, 1 Day Protectant, rate 121.5 g/H, read-out: SEPTTR 1 DP disease control.
The mark [5] stands for this setting: 72 h, 3 Day Curative, read-out: SEPTTR 3 DC disease control.
Setting [6] is: 72 h, 3 Day Curative, rate 121.5 g/H, read-out: SEPTTR 3 DC disease control.
The mark [7] stands for this setting: 24 h, 1 Day Protectant, read-out: PUCCRT 1 DP disease control.
Setting [8] is: 24 h, 1 Day Protectant, rate 121.5 g/H, read-out: PUCCRT 1 DP disease control.
The mark [9] stands for this setting: 72 h, 3 Day Curative, read-out: PUCCRT 3 DC disease control.
Where [10] appears, read: 72 h, 3 Day Curative, rate 121.5 g/H, read-out: PUCCRT 3 DC disease control.

SMILES strings stand for the structures. Like-named read-outs stand apart in the source and are kept apart here.

Regarding `CCCO[C@@H]1[C@@H](Cc2ccccc2)CCC[C@H](NC(=O)c2nccc(OC)c2OC(=O)CCOC)C(=O)O[C@H]1C` [Compound F198], the pest or weed control at 121.5 g/ha was in the range of 80 to 100% in assay [1] (24 h, Wheat Leaf Blotch, 1 Day Protectant, rate 121.5 g/H (low volume application), read-out: Disease control SEPTTR 1 DP); 80 to 100% in assay [1] (72 h, Wheat Leaf Blotch, 3 Day Curative, rate 121.5 g/H (low volume application), read-out: Disease control SEPTTR 3 DC); 80 to 100% in assay [2] (24 h, Wheat Brown Rust, 1 Day Protectant, rate 121.5 g/H (low volume application), read-out: Disease control PUCCRT 1 DP); 80 to 100% in assay [2] (72 h, Wheat Brown Rust, 3 Day Curative, rate 121.5 g/H (low volume application), read-out: Disease control PUCCRT 3 DC). Further, the pest or weed control at 100 ppm with Erysiphe cichoracearum lay in the range of 80 to 100%.
Turning to `COc1ccnc(C(=O)N[C@H]2CCC[C@H](Cc3ccc(F)cc3)[C@@H](OCC(C)C)[C@H](C)OC2=O)c1OCOC(C)=O` [Compound F102], the pest or weed control at 100 ppm in assay [1] (setting [3]), in assay [1] (setting [5]), in assay [2] (setting [7]) and in assay [2] (setting [9]) was 80 to 100% each time. For the same molecule, the pest or weed control at 121.5 g/ha in assay [1] (setting [4]) was 80 to 100%; in assay [1] (setting [6]), 80 to 100%; in assay [2] (setting [8]) it was 80 to 100%; in assay [2] (setting [10]), 0 to 80%.
As to `CCOCC(=O)OCOc1c(OC)ccnc1C(=O)N[C@H]1CCC[C@H](CCF)[C@@H](OCC(C)C)[C@H](C)OC1=O` [Compound F181], the pest or weed control at 100 ppm in assay [1] (setting [3]) lay in the range of 80 to 100%; in assay [1] (setting [5]), 80 to 100%; in assay [2] (setting [7]) it was 80 to 100%; in assay [2] (setting [9]), 80 to 100%; in the assay on Erysiphe cichoracearum, 0 to 80%. Also, the pest or weed control at 121.5 g/ha in assay [1] (setting [4]), in assay [1] (setting [6]), in assay [2] (setting [8]) and in assay [2] (setting [10]) was 80 to 100% throughout.
Regarding `CCO[C@@H]1[C@@H](Cc2ccccc2)CCC[C@H](NC(=O)c2nccc(OC)c2OC(C)=O)C(=O)O[C@H]1C` [Compound F87], the pest or weed control at 121.5 g/ha in assay [1] (setting [4]), in assay [1] (setting [6]), in assay [2] (setting [8]) and in assay [2] (setting [10]) was 80 to 100% in each case. The pest or weed control at 100 ppm with Erysiphe cichoracearum lay within 0 to 80%.
Regarding `CCOCC(=O)OCOc1c(OC)ccnc1C(=O)N[C@H]1CCC[C@H](CC2CCCCC2)[C@@H](OCC(C)C)[C@H](C)OC1=O` [Compound F175], the pest or weed control at 100 ppm in assay [1] (setting [3]) is 80 to 100%; in assay [1] (setting [5]), 80 to 100%; in assay [2] (setting [7]) it was 80 to 100%; in assay [2] (setting [9]), 80 to 100%; in the assay with Erysiphe cichoracearum, 0 to 80%. Besides, the pest or weed control at 121.5 g/ha in assay [1] (setting [4]) lay in the range of 80 to 100%; in assay [1] (setting [6]), 0 to 80%; in assay [2] (setting [8]), 80 to 100%; in assay [2] (setting [10]) it was 0 to 80%.
With `CCCO[C@@H]1[C@@H](Cc2ccc(OC)cc2)CCC[C@H](NC(=O)c2nccc(OC)c2OCOC(C)=O)C(=O)O[C@H]1C` [Compound F119], the pest or weed control at 100 ppm (in assay [1] (setting [3]); in assay [1] (setting [5]); in assay [2] (setting [7]); in assay [2] (setting [9]); in the assay with Erysiphe cichoracearum) was 80 to 100% each time. Moreover, the pest or weed control at 121.5 g/ha in assay [1] (setting [4]), in assay [1] (setting [6]), in assay [2] (setting [8]) and in assay [2] (setting [10]) was 80 to 100% each time.
For `CCCO[C@@H]1[C@@H](Cc2ccc(F)cc2)CCC[C@H](NC(=O)c2nccc(OC)c2OCOC(C)=O)C(=O)O[C@H]1C` [Compound F101], the pest or weed control at 100 ppm (in assay [1] (setting [3]); in assay [1] (setting [5]); in assay [2] (setting [7]); in assay [2] (setting [9]); with Erysiphe cichoracearum) was 80 to 100% each time. In addition, the pest or weed control at 121.5 g/ha in assay [1] (setting [4]), in assay [1] (setting [6]), in assay [2] (setting [8]) and in assay [2] (setting [10]) was 80 to 100% each time.
Consider `CCOCC(=O)OCOc1c(OC)ccnc1C(=O)N[C@H]1CCC[C@H](Cc2ccc(F)cc2)[C@@H](OCC(C)C)[C@H](C)OC1=O` [Compound F168], for which the pest or weed control at 100 ppm in assay [1] (setting [3]), in assay [1] (setting [5]), in assay [2] (setting [7]) and in assay [2] (setting [9]) was 80 to 100% throughout. In addition, the pest or weed control at 121.5 g/ha in assay [1] (setting [4]), in assay [1] (setting [6]), in assay [2] (setting [8]) and in assay [2] (setting [10]) was 80 to 100% throughout.
Take `COc1ccnc(C(=O)N[C@H]2CCC[C@H](Cc3ccccc3)[C@@H](OCC3CC3)[C@H](C)OC2=O)c1OCOC(=O)C(C)C` [Compound F152]: the pest or weed control at 100 ppm (in assay [1] (setting [3]); in assay [1] (setting [5]); in assay [2] (setting [7]); in assay [2] (setting [9]); with Erysiphe cichoracearum) was 80 to 100% in each case. For the same molecule, the pest or weed control at 121.5 g/ha in assay [1] (setting [4]), in assay [1] (setting [6]), in assay [2] (setting [8]) and in assay [2] (setting [10]) was 80 to 100% throughout.
Regarding `COc1ccnc(C(=O)N[C@H]2CCC[C@H](Cc3ccccc3)[C@@H](OCC3CC3)[C@H](C)OC2=O)c1OCOC(C)=O` [Compound F107], the pest or weed control at 100 ppm (in assay [1] (setting [3]); in assay [1] (setting [5]); in assay [2] (setting [7]); in assay [2] (setting [9]); in the assay with Erysiphe cichoracearum) was 80 to 100% throughout. The pest or weed control at 121.5 g/ha in assay [1] (setting [4]), in assay [1] (setting [6]), in assay [2] (setting [8]) and in assay [2] (setting [10]) was 80 to 100% in each case.
Regarding `COc1ccnc(C(=O)N[C@H]2CCC[C@H](CC3CCCCC3)[C@@H](OCC(C)C)[C@H](C)OC2=O)c1OCOC(C)=O` [Compound F113], the pest or weed control at 100 ppm (in assay [1] (setting [3]); in assay [1] (setting [5]); in assay [2] (setting [7]); in assay [2] (setting [9]); in the assay on Erysiphe cichoracearum) was 80 to 100% each time. The pest or weed control at 121.5 g/ha in assay [1] (setting [4]), in assay [1] (setting [6]), in assay [2] (setting [8]) and in assay [2] (setting [10]) was 80 to 100% each time.
For the molecule `CCCO[C@@H]1[C@@H](Cc2ccccc2)CCC[C@H](NC(=O)c2nccc(OC)c2OC(C)=O)C(=O)O[C@H]1C` [Compound F88], the pest or weed control at 121.5 g/ha in assay [1] (setting [4]), in assay [1] (setting [6]), in assay [2] (setting [8]) and in assay [2] (setting [10]) was 80 to 100% throughout. In addition, the pest or weed control at 100 ppm in the assay on Erysiphe cichoracearum lay in the range of 80 to 100%.
As to `COc1ccc(C[C@H]2CCC[C@H](NC(=O)c3nccc(OC)c3OCOC(C)=O)C(=O)O[C@@H](C)[C@@H]2Oc2ccccc2)cc1` [Compound F114], the pest or weed control at 100 ppm in assay [1] (setting [3]), in assay [1] (setting [5]), in assay [2] (setting [7]) and in assay [2] (setting [9]) was 80 to 100% throughout. For the same molecule, the pest or weed control at 121.5 g/ha in assay [1] (setting [4]) is 80 to 100%; in assay [1] (setting [6]), 80 to 100%; in assay [2] (setting [8]) it was 80 to 100%; in assay [2] (setting [10]) it was 0 to 80%.
